“Also recorded” adds a separate entry of the source.
Key:
CIC-1 = molecular target: T1, CIC-1 (Rattus norvegicus, UniProt P35524); test: Resting membrane conductance (Gm) in muscle fibres of isolated nerve-muscle preparations; type: cell-based
T1 construct: from tissue; host or cells: soleus or diaphragm muscle of healthy and EAMG Lewis rats
T1 sequence (P35524 1-994): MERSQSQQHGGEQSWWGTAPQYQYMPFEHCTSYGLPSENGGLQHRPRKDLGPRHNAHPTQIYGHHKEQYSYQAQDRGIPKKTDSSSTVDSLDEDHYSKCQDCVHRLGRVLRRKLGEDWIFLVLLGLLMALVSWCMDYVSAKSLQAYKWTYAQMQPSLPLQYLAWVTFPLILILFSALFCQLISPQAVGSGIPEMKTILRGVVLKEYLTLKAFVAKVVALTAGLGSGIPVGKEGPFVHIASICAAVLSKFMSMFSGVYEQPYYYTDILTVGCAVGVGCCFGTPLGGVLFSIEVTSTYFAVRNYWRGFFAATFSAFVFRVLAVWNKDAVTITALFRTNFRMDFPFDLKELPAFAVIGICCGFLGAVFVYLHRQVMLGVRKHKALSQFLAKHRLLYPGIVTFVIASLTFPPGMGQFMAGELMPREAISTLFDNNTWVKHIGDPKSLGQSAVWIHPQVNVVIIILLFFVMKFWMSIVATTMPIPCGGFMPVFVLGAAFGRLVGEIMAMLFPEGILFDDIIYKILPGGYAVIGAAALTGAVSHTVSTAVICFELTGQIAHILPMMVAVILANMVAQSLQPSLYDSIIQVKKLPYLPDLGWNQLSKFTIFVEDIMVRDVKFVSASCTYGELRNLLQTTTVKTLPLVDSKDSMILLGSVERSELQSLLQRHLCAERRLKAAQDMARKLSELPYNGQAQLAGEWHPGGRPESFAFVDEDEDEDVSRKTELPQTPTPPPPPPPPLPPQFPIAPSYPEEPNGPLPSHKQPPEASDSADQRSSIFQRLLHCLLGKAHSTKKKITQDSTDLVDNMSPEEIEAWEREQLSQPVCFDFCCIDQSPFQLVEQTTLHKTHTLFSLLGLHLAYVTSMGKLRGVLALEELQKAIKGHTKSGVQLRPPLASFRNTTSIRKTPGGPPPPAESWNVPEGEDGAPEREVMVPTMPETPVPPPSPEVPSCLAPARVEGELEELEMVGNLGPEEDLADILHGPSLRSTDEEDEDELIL
Text: (§1) To allow for measurements of electrophysiological properties at the cellular level and for measurements of force, it was necessary to isolate nerve-muscle preparations from the rats. To this end, animals were sacrificed, and muscles were dissected out with 1 to 3 cm of intact nerve. The nerve-muscle preparations were then transferred to the organ baths used for the particular experiments (see below) and perfused with Normal Krebs-Ringer (NKR) solution, consisting of (in mM); 122 NaCl, 25 NaHCO3, 2.8 KCl, 1.2 KH2PO4, 1.2 MgSO4 1.27 CaCl2 and 5 D-glucose. This NKR solution was continuously gassed with a mixture of 95% oxygen and 5% CO2, to maintain a pH of approx. 7.4. In some experiments methyl-sulphate was used to replace Cl^− in the solution. All chemicals used were of analytical grade.

[1] = system: soleus muscle fibres from healthy and EAMG rats; test: Rheobase current (muscle fibre excitability) in soleus muscle fibres; type: cell-based, rat; conditions: 20 μM NMD670; soleus muscle fibres from healthy (n=20) and EAMG (n=12) rats, before vs after addition
Text: as §1

EAMG muscle fibres = test: Intracellular action potential measurement during nerve stimulation; type: cell-based, rat; conditions: 20 μM NMD670; 30 Hz nerve stimulation; EAMG muscle fibres (n=110)
Text: as §1

[2] = system: patients with myasthenia gravis; test: Phase IIA clinical trial (Part C): Quantitative Myasthenia Gravis test; type: in vivo, human
Experimental: For each subject, the study consisted of three study periods during which subjects received either a single dose of NMD670 400 mg, NMD670 1200 mg, or placebo with a 7-day washout period between visits. On these study visits, subjects were asked to refrain from their regular dose of pyridostigmine (if applicable) from 14 h before dosing until after the last pharmacodynamic measurement on Day 1 (see Table 13: Visit and Assessment Schedule). The cross-over design allowed intra-individual comparison of drug effects versus placebo (see FIG. 16). A balanced design was applied to control for first-order carry-over effects.
Part C was a double-blinded, placebo-controlled, three-way cross-over comparison of two single oral doses of NMD670 in men and women with stable symptomatic myasthenia gravis. 12 patients were enrolled. For each subject, the study consisted of three study periods during which subjects received either a single dose of NMD670 or placebo. On these study visits, subjects were asked to refrain from their regular dose of pyridostigmine (if applicable) for 14 hours before dosing. Single doses were administered in randomized order (400 mg free acid, 1200 mg free acid, or placebo p.o.), with a 7-day washout period between visits (FIG. 16). NMD670/placebo was administered with 240 ml of still water.
The Quantitative Myasthenia Gravis (QMG) total score (Barohn et al., Ann N YAcad Sci 1998, 841:769-72) is a validated clinical measure of sentinel muscle groups developed by the Myasthenia Gravis Foundation of America and the current clinical gold standard recommended for all prospective studies in MG. The QMG test is a physician-rated test using 13 assessments (see table 1), including facial strength, swallowing, respiratory, grip strength, and duration of time that limbs can be maintained in outstretched positions. Each of the 13 items is scored from 0 (none) to 3 (severe).
The total score can range from 0 to 39.

[3] = 400 mg group, 3-hour measurements
[4] = 1200 mg group, 3- and 5-hour measurements
[5] = single doses, 12 patients with MG

C[C@H](Oc1ccc(Br)cc1-c1ccon1)C(=O)O [NMD670, (2S)-2-[4-bromo-2-(1,2-oxazol-3-yl)phenoxy]propanoic acid]
Membrane conductance (Gm) (CIC-1; 20 μM NMD670, rat soleus muscle from healthy (n=20) and EAMG (n=12) animals, before vs after addition): statistically significantly reduced Gm
Membrane conductance (Gm) in bathing solution free of Cl− (CIC-1; increasing concentration of NMD670, Cl−-free solution): did not reduced Gm
Rheobase current [1]: significantly reduced rheobase current
Success of repeated action potential excitations (EAMG muscle fibres): improved markedly; also recorded: AP excitation failures were less common
Patients achieving a 2-point or larger improvement in QMG total score [2, 3]: 6 of 12
QMG responder rate (2-point or larger improvement from baseline compared to placebo) [2, 3]: 50%
Patients achieving a 2-point or larger improvement in QMG total score ([2]; 400 mg group, 5-hour): 5 of 12
QMG responder rate (2-point or larger improvement from baseline compared to placebo) ([2]; 400 mg group, 5-hour): 42%
QMG total score, LSM change over placebo (given as positive improvement) ([2]; 400 mg treatment group, 3-hour timepoint, p=0.12): 1.3 points
QMG total score, Arithmetic Mean change (given as positive improvement) ([2]; 400 mg treatment group, 5-hour timepoint): 2.1 points
QMG total score, LSM change over placebo (given as positive improvement) ([2]; 400 mg treatment group, 5-hour timepoint, p=0.02): 1.7 points
QMG total score, CFB over placebo, Arithmetic mean ([2]; 400 mg versus placebo, 3-hour): −1.6 points
QMG total score, CFB over placebo, LSM ([2]; 400 mg versus placebo, 3-hour, p = 0.12): −1.2 points
QMG total score, CFB over placebo, Arithmetic mean ([2]; 400 mg versus placebo, 5-hour): −2.1 points
QMG total score, CFB over placebo, LSM ([2]; 400 mg versus placebo, 5-hour, p = 0.02): −1.7 points
QMG total score, CFB over placebo, LSM ([2]; 400 mg versus placebo, Overall, p = 0.03, single oral dose, 12 MG patients): −1.5 points
Patients achieving a 2-point or larger improvement in QMG total score [2, 4]: 5 of 12
QMG responder rate (2-point or larger improvement from baseline compared to placebo) [2, 4]: 42%
QMG total score, Least Mean Square change improvement from baseline over placebo ([2]; 1200 mg group, 3-hour timepoint): 0.9 points
QMG total score, Least Mean Square change improvement from baseline over placebo ([2]; 1200 mg group, 5-hour timepoint): 1.1 points
QMG total score, Least Mean Square change improvement from baseline over placebo ([2]; 1200 mg group, overall, non-statistically significant): 1.0 points
QMG total score, CFB over placebo, Arithmetic mean ([2]; 1200 mg versus placebo, 3-hour): −1.2 points
QMG total score, CFB over placebo, LSM ([2]; 1200 mg versus placebo, 3-hour, p = 0.25): −0.9 points
QMG total score, CFB over placebo, Arithmetic mean ([2]; 1200 mg versus placebo, 5-hour): −1.5 points
QMG total score, CFB over placebo, LSM ([2]; 1200 mg versus placebo, 5-hour, p = 0.14): −1.1 points
QMG total score, CFB over placebo, LSM ([2]; 1200 mg versus placebo, Overall, p = 0.14): −1 points
QMG individual items: double vision, ptosis and dysarthria compared to placebo ([2]; both 400 mg and 1200 mg doses, non-statistically significant): improved
Patients meeting responder criterion (QMG) [2, 5]: up to 50%
QMG total Score after single doses [2, 5]: clinically significant improvements
QMG total score, LSM change from baseline improvement over placebo (given as positive improvement) ([2]; worded 'the NMD670 treatment arms', p=0.03 (Table 17: 400 mg overall)): 1.5 points
